Experimental data: the kinase profiling compilation of Christmann-Franck et al. (2016)

Columns and labels:
Assay in all cases: KINOMEscan competition binding
[1] = target: STK4 (human) (UniProt Q13043)
[2] = target: PAK3 (human) (UniProt O75914)
[3] = target: BMP2K (human) (UniProt Q9NSY1)
[4] = target: JAK2 JH1 catalytic (human) (UniProt O60674)
[5] = target: SIK3 (human) (UniProt Q9Y2K2)
[6] = target: LIMK2 (human) (UniProt P53671)
[7] = target: LRRK2 (human) (UniProt Q5S007)
[8] = target: STK3 (human) (UniProt Q13188)
[9] = target: CDK13 (human) (UniProt Q14004)
[10] = target: MTOR (human) (UniProt P42345)
[11] = target: PIK3CG (human) (UniProt P48736)
[12] = target: PAK2 (human) (UniProt Q13177)
[13] = target: RIPK1 (human) (UniProt Q13546)
[14] = system: LRRK2 (human), Q5S007 [G2019S]
[15] = target: OXSR1 (human) (UniProt O95747)
[16] = target: MAP3K15 (human) (UniProt Q6ZN16)
[17] = target: CDK5 (human) (UniProt Q00535)
[18] = target: PTK6 (human) (UniProt Q13882)
[19] = target: SBK1 (human) (UniProt Q52WX2)
[20] = target: CDK15 (human) (UniProt Q96Q40)
[21] = target: CSNK1G3 (human) (UniProt Q9Y6M4)
[22] = system: PIK3CA (human), P42336 [M1043I]
[23] = target: PTK2 (human) (UniProt Q05397)
[24] = target: PAK6 (human) (UniProt Q9NQU5)
[25] = target: MAP2K3 (human) (UniProt P46734)
[26] = target: MAPK7 (human) (UniProt Q13164)
[27] = target: GAK (human) (UniProt O14976)
[28] = target: IKBKE (human) (UniProt Q14164)
[29] = target: MAP3K11 (human) (UniProt Q16584)
[30] = target: CRK2 (P.falciparum) (UniProt P61075)
[31] = target: VRK2 (human) (UniProt Q86Y07)
[32] = target: CHUK (human) (UniProt O15111)
[33] = target: TLK2 (human) (UniProt Q86UE8)
[34] = target: CAMK2A (human) (UniProt Q9UQM7)
[35] = target: INSRR (human) (UniProt P14616)
[36] = system: RET (human), P07949 [V804L]
[37] = target: MAP3K1 (human) (UniProt Q13233)
[38] = target: BMPR2 (human) (UniProt Q13873)
[39] = target: CAMK2B (human) (UniProt Q13554)
[40] = target: GSK3A (human) (UniProt P49840)
[41] = target: ROS1 (human) (UniProt P08922)
[42] = system: PIK3CA (human), P42336 [H1047L]
[43] = target: RIPK2 (human) (UniProt O43353)

Chain of SIK3 (human) (Q9Y2K2 whole entry, looked up): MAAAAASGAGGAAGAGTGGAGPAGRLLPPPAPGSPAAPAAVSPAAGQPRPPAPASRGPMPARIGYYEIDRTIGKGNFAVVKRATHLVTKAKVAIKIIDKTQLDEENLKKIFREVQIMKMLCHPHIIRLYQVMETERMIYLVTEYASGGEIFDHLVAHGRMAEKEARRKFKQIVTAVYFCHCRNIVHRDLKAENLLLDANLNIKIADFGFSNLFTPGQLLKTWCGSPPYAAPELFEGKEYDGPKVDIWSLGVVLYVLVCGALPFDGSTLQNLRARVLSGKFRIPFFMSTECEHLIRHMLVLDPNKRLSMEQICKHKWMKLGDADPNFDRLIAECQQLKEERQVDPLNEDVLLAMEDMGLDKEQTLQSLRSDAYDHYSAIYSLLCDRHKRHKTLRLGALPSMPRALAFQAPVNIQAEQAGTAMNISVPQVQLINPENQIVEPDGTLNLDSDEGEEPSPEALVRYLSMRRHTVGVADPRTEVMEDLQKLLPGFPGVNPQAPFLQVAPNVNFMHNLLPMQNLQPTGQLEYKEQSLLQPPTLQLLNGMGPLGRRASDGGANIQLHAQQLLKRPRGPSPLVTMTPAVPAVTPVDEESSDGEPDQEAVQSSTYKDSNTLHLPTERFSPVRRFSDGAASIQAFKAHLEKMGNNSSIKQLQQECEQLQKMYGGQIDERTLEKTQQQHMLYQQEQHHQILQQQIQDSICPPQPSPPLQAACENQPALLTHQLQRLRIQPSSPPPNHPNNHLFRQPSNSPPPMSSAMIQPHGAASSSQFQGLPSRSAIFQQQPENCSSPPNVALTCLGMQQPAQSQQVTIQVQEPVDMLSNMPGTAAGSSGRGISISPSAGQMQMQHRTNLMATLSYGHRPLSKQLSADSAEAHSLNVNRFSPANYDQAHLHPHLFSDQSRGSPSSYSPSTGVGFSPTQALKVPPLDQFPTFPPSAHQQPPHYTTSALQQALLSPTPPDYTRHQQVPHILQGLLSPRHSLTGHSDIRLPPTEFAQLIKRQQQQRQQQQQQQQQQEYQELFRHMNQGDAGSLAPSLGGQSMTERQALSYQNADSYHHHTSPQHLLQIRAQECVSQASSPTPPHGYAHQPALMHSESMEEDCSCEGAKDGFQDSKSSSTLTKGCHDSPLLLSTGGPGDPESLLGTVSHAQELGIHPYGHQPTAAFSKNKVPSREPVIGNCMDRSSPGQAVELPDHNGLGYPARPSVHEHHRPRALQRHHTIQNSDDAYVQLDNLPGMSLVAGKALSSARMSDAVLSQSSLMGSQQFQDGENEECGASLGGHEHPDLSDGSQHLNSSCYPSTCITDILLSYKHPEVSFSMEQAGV
Chain of CDK13 (human) (Q14004 whole entry, looked up): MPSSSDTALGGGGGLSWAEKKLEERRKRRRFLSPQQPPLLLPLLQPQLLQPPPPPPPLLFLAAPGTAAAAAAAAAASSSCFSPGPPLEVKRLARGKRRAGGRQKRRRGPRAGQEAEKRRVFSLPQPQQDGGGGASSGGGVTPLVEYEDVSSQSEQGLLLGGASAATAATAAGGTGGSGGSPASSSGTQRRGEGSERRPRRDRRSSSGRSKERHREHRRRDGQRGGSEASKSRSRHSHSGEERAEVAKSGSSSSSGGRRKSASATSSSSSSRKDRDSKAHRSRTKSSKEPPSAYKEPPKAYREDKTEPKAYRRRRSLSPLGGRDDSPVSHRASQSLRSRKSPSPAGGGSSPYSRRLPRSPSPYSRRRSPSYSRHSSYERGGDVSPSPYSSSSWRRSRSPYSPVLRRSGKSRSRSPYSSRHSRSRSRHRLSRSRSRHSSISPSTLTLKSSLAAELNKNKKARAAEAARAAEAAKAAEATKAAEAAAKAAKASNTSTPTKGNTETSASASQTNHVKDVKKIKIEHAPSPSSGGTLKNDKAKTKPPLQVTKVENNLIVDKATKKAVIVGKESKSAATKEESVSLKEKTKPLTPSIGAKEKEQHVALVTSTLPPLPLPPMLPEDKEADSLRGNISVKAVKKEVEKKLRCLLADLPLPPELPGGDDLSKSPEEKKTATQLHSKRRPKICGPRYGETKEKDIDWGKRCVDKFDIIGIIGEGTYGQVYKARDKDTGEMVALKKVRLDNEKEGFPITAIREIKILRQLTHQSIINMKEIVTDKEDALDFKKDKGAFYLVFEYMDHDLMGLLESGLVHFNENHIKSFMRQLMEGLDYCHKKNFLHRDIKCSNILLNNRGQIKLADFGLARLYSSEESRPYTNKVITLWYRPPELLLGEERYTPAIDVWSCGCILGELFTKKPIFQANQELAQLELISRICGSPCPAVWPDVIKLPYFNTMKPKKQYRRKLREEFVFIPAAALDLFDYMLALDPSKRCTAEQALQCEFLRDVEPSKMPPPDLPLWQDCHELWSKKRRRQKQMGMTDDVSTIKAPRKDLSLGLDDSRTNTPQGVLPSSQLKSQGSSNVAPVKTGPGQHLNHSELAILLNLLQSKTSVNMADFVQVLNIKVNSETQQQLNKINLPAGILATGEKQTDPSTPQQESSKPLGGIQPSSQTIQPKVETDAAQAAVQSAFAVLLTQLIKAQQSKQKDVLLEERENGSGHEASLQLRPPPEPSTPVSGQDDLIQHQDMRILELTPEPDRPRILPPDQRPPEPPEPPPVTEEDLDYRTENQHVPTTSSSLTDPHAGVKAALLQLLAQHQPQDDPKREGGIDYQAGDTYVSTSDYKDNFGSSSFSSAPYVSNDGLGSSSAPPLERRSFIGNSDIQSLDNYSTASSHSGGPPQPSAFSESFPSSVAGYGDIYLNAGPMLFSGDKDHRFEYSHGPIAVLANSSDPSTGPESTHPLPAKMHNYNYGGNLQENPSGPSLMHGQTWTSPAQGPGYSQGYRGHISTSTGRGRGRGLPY
Chain of SBK1 (human) (Q52WX2 whole entry, looked up): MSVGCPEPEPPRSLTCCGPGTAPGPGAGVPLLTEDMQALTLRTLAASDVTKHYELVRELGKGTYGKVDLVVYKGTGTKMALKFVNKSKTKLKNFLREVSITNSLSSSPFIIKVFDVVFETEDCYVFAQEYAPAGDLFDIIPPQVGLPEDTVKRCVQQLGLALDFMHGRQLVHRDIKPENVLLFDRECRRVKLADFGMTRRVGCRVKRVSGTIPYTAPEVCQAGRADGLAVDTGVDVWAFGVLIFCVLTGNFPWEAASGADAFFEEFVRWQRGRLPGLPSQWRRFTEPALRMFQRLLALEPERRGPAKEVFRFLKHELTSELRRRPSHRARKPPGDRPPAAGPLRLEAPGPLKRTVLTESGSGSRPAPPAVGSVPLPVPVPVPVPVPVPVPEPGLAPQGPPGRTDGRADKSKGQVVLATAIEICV
Chain of STK3 (human) (Q13188 whole entry, looked up): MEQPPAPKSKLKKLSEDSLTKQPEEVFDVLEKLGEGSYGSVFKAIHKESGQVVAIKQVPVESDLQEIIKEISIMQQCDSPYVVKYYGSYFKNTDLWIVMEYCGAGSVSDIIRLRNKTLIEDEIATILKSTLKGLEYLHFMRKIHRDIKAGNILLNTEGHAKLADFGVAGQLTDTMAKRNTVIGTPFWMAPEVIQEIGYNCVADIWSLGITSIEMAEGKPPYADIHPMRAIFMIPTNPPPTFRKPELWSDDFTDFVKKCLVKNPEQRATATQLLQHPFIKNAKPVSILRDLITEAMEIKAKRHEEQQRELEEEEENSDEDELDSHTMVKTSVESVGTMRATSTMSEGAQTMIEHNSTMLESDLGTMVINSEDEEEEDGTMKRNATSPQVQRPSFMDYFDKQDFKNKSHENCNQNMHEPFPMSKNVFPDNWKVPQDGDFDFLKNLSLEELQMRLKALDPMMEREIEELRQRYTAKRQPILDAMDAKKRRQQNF
Chain of PIK3CA (human), P42336 [H1047L] (P42336 whole entry H1047L, looked up): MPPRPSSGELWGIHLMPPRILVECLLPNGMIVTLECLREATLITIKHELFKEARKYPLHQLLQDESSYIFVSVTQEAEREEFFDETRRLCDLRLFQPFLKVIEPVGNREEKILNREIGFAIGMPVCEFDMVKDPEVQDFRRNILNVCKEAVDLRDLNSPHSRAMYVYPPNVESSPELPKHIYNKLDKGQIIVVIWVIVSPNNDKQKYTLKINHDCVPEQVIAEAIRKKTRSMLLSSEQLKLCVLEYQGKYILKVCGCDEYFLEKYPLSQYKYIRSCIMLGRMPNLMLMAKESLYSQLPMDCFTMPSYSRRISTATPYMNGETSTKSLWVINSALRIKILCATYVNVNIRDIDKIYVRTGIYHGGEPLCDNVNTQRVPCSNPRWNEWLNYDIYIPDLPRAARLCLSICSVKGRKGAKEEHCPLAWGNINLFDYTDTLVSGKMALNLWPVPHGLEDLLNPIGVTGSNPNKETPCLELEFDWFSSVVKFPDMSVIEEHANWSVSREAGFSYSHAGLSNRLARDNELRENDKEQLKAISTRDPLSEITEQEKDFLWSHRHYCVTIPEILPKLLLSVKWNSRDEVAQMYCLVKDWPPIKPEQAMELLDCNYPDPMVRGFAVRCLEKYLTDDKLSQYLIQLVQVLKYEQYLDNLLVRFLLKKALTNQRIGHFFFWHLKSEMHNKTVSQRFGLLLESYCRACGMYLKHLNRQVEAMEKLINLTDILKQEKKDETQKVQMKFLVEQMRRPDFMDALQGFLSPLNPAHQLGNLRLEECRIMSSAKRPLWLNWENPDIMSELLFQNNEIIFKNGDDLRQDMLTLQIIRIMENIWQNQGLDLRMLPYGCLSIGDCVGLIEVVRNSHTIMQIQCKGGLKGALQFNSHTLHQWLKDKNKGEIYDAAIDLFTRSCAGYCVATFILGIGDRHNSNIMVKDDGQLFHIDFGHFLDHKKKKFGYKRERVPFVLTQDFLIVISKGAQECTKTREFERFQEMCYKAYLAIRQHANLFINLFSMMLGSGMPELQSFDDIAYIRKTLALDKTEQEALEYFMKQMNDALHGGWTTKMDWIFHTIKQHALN
Chain of PIK3CA (human), P42336 [M1043I] (P42336 whole entry M1043I, looked up): as the sequence (P42336 whole entry H1047L, looked up) above, with M1043I, L1047H counted along it

SMILES: CN(C)C/C=C/C(=O)Nc1cccc(C(=O)Nc2ccc(Nc3nccc(-c4c(-c5ccccc5)nn5ccccc45)n3)cc2)c1
- kinase still bound, per cent of control ([1]; compound 1.0 µM): 4.2%
- kinase still bound, per cent of control ([2]; compound 1.0 µM): 52%
- kinase still bound, per cent of control ([3]; compound 1.0 µM): 100%
- kinase still bound, per cent of control ([4]; compound 1.0 µM): 100%
- kinase still bound, per cent of control ([5]; compound 1.0 µM): 100%
- kinase still bound, per cent of control ([6]; compound 1.0 µM): 100%
- kinase still bound, per cent of control ([7]; compound 1.0 µM): 72%
- kinase still bound, per cent of control ([8]; compound 1.0 µM): 99%
- kinase still bound, per cent of control ([9]; compound 1.0 µM): 100%
- kinase still bound, per cent of control ([10]; compound 1.0 µM): 100%
- kinase still bound, per cent of control ([11]; compound 1.0 µM): 84%
- kinase still bound, per cent of control ([12]; compound 1.0 µM): 88%
- kinase still bound, per cent of control ([13]; compound 1.0 µM): 73%
- kinase still bound, per cent of control ([14]; compound 1.0 µM): 100%
- kinase still bound, per cent of control ([15]; compound 1.0 µM): 100%
- kinase still bound, per cent of control ([16]; compound 1.0 µM): 47%
- kinase still bound, per cent of control ([17]; compound 1.0 µM): 100%
- kinase still bound, per cent of control ([18]; compound 1.0 µM): 82%
- kinase still bound, per cent of control ([19]; compound 1.0 µM): 92%
- kinase still bound, per cent of control ([20]; compound 1.0 µM): 100%
- kinase still bound, per cent of control ([21]; compound 1.0 µM): 1.2%
- kinase still bound, per cent of control ([22]; compound 1.0 µM): 100%
- kinase still bound, per cent of control ([23]; compound 1.0 µM): 95%
- kinase still bound, per cent of control ([24]; compound 1.0 µM): 100%
- kinase still bound, per cent of control ([25]; compound 1.0 µM): 58%
- kinase still bound, per cent of control ([26]; compound 1.0 µM): 100%
- kinase still bound, per cent of control ([27]; compound 1.0 µM): 2.4%
- kinase still bound, per cent of control ([28]; compound 1.0 µM): 95%
- kinase still bound, per cent of control ([29]; compound 1.0 µM): 71%
- kinase still bound, per cent of control ([30]; compound 1.0 µM): 100%
- kinase still bound, per cent of control ([31]; compound 1.0 µM): 85%
- kinase still bound, per cent of control ([32]; compound 1.0 µM): 93%
- kinase still bound, per cent of control ([33]; compound 1.0 µM): 100%
- kinase still bound, per cent of control ([34]; compound 1.0 µM): 100%
- kinase still bound, per cent of control ([35]; compound 1.0 µM): 97%
- kinase still bound, per cent of control ([36]; compound 1.0 µM): 89%
- kinase still bound, per cent of control ([37]; compound 1.0 µM): 96%
- kinase still bound, per cent of control ([38]; compound 1.0 µM): 100%
- kinase still bound, per cent of control ([39]; compound 1.0 µM): 100%
- kinase still bound, per cent of control ([40]; compound 1.0 µM): 38%
- kinase still bound, per cent of control ([41]; compound 1.0 µM): 100%
- kinase still bound, per cent of control ([42]; compound 1.0 µM): 77%
- kinase still bound, per cent of control ([43]; compound 1.0 µM): 12%

SMILES: Cc1cc(NC(=O)c2cccc(NC(=O)/C=C/CN(C)C)c2)ccc1Nc1nccc(-c2cccnc2)n1
- kinase still bound, per cent of control ([1]; compound 1.0 µM): 100%
- kinase still bound, per cent of control ([2]; compound 1.0 µM): 100%
- kinase still bound, per cent of control ([3]; compound 1.0 µM): 94%
- kinase still bound, per cent of control ([4]; compound 1.0 µM): 100%
- kinase still bound, per cent of control ([5]; compound 1.0 µM): 100%
- kinase still bound, per cent of control ([6]; compound 1.0 µM): 98%
- kinase still bound, per cent of control ([7]; compound 1.0 µM): 50%
- kinase still bound, per cent of control ([8]; compound 1.0 µM): 48%
- kinase still bound, per cent of control ([9]; compound 1.0 µM): 100%
- kinase still bound, per cent of control ([10]; compound 1.0 µM): 100%
- kinase still bound, per cent of control ([11]; compound 1.0 µM): 100%
- kinase still bound, per cent of control ([12]; compound 1.0 µM): 100%
- kinase still bound, per cent of control ([13]; compound 1.0 µM): 51%
- kinase still bound, per cent of control ([14]; compound 1.0 µM): 67%
- kinase still bound, per cent of control ([15]; compound 1.0 µM): 89%
- kinase still bound, per cent of control ([16]; compound 1.0 µM): 82%
- kinase still bound, per cent of control ([17]; compound 1.0 µM): 100%
- kinase still bound, per cent of control ([18]; compound 1.0 µM): 100%
- kinase still bound, per cent of control ([19]; compound 1.0 µM): 96%
- kinase still bound, per cent of control ([20]; compound 1.0 µM): 100%
- kinase still bound, per cent of control ([21]; compound 1.0 µM): 100%
- kinase still bound, per cent of control ([22]; compound 1.0 µM): 94%
- kinase still bound, per cent of control ([23]; compound 1.0 µM): 11%
- kinase still bound, per cent of control ([24]; compound 1.0 µM): 100%
- kinase still bound, per cent of control ([25]; compound 1.0 µM): 95%
- kinase still bound, per cent of control ([26]; compound 1.0 µM): 100%
- kinase still bound, per cent of control ([27]; compound 1.0 µM): 92%
- kinase still bound, per cent of control ([28]; compound 1.0 µM): 91%
- kinase still bound, per cent of control ([29]; compound 1.0 µM): 91%
- kinase still bound, per cent of control ([30]; compound 1.0 µM): 90%
- kinase still bound, per cent of control ([31]; compound 1.0 µM): 97%
- kinase still bound, per cent of control ([32]; compound 1.0 µM): 100%
- kinase still bound, per cent of control ([33]; compound 1.0 µM): 100%
- kinase still bound, per cent of control ([34]; compound 1.0 µM): 100%
- kinase still bound, per cent of control ([35]; compound 1.0 µM): 100%
- kinase still bound, per cent of control ([36]; compound 1.0 µM): 100%
- kinase still bound, per cent of control ([37]; compound 1.0 µM): 100%
- kinase still bound, per cent of control ([38]; compound 1.0 µM): 77%
- kinase still bound, per cent of control ([39]; compound 1.0 µM): 100%
- kinase still bound, per cent of control ([40]; compound 1.0 µM): 92%
- kinase still bound, per cent of control ([41]; compound 1.0 µM): 90%
- kinase still bound, per cent of control ([42]; compound 1.0 µM): 100%
- kinase still bound, per cent of control ([43]; compound 1.0 µM): 99%

SMILES: Cc1ccc(NC(=O)c2ccc(NC(=O)/C=C/CN(C)C)cc2)cc1Nc1nccc(-c2cccnc2)n1
- kinase still bound, per cent of control ([1]; compound 10.0 µM): 100%
- kinase still bound, per cent of control ([2]; compound 10.0 µM): 68%
- kinase still bound, per cent of control ([3]; compound 10.0 µM): 88%
- kinase still bound, per cent of control ([4]; compound 10.0 µM): 39%
- kinase still bound, per cent of control ([5]; compound 10.0 µM): 100%
- kinase still bound, per cent of control ([6]; compound 10.0 µM): 78%
- kinase still bound, per cent of control ([7]; compound 10.0 µM): 41%
- kinase still bound, per cent of control ([8]; compound 10.0 µM): 100%
- kinase still bound, per cent of control ([9]; compound 10.0 µM): 65%
- kinase still bound, per cent of control ([10]; compound 10.0 µM): 100%
- kinase still bound, per cent of control ([11]; compound 10.0 µM): 68%
- kinase still bound, per cent of control ([12]; compound 10.0 µM): 80%
- kinase still bound, per cent of control ([13]; compound 10.0 µM): 56%
- kinase still bound, per cent of control ([14]; compound 10.0 µM): 48%
- kinase still bound, per cent of control ([15]; compound 10.0 µM): 82%
- kinase still bound, per cent of control ([16]; compound 10.0 µM): 92%
- kinase still bound, per cent of control ([17]; compound 10.0 µM): 100%
- kinase still bound, per cent of control ([18]; compound 10.0 µM): 85%
- kinase still bound, per cent of control ([19]; compound 10.0 µM): 77%
- kinase still bound, per cent of control ([20]; compound 10.0 µM): 100%
- kinase still bound, per cent of control ([21]; compound 10.0 µM): 71%
- kinase still bound, per cent of control ([22]; compound 10.0 µM): 100%
- kinase still bound, per cent of control ([23]; compound 10.0 µM): 70%
- kinase still bound, per cent of control ([24]; compound 10.0 µM): 45%
- kinase still bound, per cent of control ([25]; compound 10.0 µM): 50%
- kinase still bound, per cent of control ([26]; compound 10.0 µM): 100%
- kinase still bound, per cent of control ([27]; compound 10.0 µM): 8.6%
- kinase still bound, per cent of control ([28]; compound 10.0 µM): 100%
- kinase still bound, per cent of control ([29]; compound 10.0 µM): 100%
- kinase still bound, per cent of control ([30]; compound 10.0 µM): 100%
- kinase still bound, per cent of control ([31]; compound 10.0 µM): 85%
- kinase still bound, per cent of control ([32]; compound 10.0 µM): 70%
- kinase still bound, per cent of control ([33]; compound 10.0 µM): 100%
- kinase still bound, per cent of control ([34]; compound 10.0 µM): 93%
- kinase still bound, per cent of control ([35]; compound 10.0 µM): 100%
- kinase still bound, per cent of control ([36]; compound 10.0 µM): 85%
- kinase still bound, per cent of control ([37]; compound 10.0 µM): 100%
- kinase still bound, per cent of control ([38]; compound 10.0 µM): 86%
- kinase still bound, per cent of control ([39]; compound 10.0 µM): 100%
- kinase still bound, per cent of control ([40]; compound 10.0 µM): 100%
- kinase still bound, per cent of control ([41]; compound 10.0 µM): 100%
- kinase still bound, per cent of control ([42]; compound 10.0 µM): 89%
- kinase still bound, per cent of control ([43]; compound 10.0 µM): 67%
